Results as given in the kinase profiling compilation of Christmann-Franck et al. (2016).

Experiments:
Assay in all cases: KINOMEscan competition binding
Conditions in all cases: compound 10.0 µM
CSNK2A2 (human) = CSNK2A2 (human) (UniProt P19784)
[1] = test system: PIK3CA (human), P42336 [M1043I]
PIM3 (human) = PIM3 (human) (UniProt Q86V86)
PRKAA1 (human) = PRKAA1 (human) (UniProt Q13131)
MET (human) = MET (human) (UniProt P08581)
DCLK1 (human) = DCLK1 (human) (UniProt O15075)
SLK (human) = SLK (human) (UniProt Q9H2G2)
DYRK1B (human) = DYRK1B (human) (UniProt Q9Y463)
DYRK1B (human), sequence (Q9Y463 whole entry, looked up): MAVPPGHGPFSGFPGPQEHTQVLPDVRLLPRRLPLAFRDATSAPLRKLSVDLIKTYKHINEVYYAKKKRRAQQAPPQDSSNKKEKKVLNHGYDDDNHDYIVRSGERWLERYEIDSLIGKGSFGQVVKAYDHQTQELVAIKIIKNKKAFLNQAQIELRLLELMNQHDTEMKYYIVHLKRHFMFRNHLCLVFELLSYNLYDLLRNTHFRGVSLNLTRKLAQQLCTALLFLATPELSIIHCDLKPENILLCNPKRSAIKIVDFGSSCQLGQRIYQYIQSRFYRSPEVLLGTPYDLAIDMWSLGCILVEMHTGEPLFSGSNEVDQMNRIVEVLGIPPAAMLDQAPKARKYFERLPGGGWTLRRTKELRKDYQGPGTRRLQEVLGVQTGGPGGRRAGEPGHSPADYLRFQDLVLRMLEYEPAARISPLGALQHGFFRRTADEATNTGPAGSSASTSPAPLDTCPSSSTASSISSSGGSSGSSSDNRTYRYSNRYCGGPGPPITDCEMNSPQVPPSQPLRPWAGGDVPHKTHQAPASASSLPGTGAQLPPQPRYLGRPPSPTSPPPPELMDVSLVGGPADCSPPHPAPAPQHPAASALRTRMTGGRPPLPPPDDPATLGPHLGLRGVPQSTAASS

STK33 (human) = STK33 (human) (UniProt Q9BYT3)
CAMKK2 (human) = CAMKK2 (human) (UniProt Q96RR4)
MYLK4 (human) = MYLK4 (human) (UniProt Q86YV6)
LIMK1 (human) = LIMK1 (human) (UniProt P53667)
AURKB (human) = AURKB (human) (UniProt Q96GD4)
AURKB (human), sequence (Q96GD4 whole entry, looked up): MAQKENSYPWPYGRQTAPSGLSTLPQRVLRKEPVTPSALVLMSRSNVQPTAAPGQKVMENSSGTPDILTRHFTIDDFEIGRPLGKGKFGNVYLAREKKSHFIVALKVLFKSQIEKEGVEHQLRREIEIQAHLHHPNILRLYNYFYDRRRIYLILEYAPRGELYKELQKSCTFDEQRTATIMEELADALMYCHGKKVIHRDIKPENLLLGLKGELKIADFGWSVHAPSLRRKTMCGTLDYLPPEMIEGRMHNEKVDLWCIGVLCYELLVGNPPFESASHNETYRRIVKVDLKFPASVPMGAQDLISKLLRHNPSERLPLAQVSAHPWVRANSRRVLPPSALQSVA

EPHB2 (human) = EPHB2 (human) (UniProt P29323)
EPHB2 (human), sequence (P29323 whole entry, looked up): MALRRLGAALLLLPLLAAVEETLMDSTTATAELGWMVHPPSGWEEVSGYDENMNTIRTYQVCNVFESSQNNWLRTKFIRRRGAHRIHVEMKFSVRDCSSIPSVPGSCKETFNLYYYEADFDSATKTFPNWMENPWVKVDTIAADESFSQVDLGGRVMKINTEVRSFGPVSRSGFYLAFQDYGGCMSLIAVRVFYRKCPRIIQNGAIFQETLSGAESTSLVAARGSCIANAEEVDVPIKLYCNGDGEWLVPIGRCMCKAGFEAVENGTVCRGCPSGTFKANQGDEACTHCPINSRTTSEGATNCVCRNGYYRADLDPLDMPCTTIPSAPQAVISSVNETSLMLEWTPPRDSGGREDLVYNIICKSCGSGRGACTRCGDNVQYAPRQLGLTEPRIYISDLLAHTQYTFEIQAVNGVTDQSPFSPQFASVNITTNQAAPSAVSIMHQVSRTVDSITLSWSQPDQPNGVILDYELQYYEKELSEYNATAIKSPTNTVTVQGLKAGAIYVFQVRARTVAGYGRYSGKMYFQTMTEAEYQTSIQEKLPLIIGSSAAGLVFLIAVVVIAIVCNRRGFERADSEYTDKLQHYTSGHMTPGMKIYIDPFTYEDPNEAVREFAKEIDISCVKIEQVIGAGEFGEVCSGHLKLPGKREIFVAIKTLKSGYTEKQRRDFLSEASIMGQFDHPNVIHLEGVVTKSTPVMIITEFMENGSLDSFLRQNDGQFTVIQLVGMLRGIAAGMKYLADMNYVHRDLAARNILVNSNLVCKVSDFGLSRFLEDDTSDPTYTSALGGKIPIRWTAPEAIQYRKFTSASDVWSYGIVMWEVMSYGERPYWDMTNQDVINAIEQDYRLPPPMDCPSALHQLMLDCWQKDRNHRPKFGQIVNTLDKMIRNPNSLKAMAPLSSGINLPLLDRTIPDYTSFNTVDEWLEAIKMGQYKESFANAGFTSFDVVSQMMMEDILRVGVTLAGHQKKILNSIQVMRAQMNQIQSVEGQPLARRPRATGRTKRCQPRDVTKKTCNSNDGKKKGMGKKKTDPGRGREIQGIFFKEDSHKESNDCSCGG

MAP3K6 (human) = MAP3K6 (human) (UniProt O95382)
CAMKK1 (human) = CAMKK1 (human) (UniProt Q8N5S9)
PKMYT1 (human) = PKMYT1 (human) (UniProt Q99640)
EPHA6 (human) = EPHA6 (human) (UniProt Q9UF33)
MARK2 (human) = MARK2 (human) (UniProt Q7KZI7)
MINK1 (human) = MINK1 (human) (UniProt Q8N4C8)
ERBB2 (human) = ERBB2 (human) (UniProt P04626)
IRAK4 (human) = IRAK4 (human) (UniProt Q9NWZ3)
CDK11B (human) = CDK11B (human) (UniProt P21127)
CDK19 (human) = CDK19 (human) (UniProt Q9BWU1)
INSR (human) = INSR (human) (UniProt P06213)
DAPK3 (human) = DAPK3 (human) (UniProt O43293)
MAP3K7 (human) = MAP3K7 (human) (UniProt O43318)
PRKD2 (human) = PRKD2 (human) (UniProt Q9BZL6)
CDK13 (human) = CDK13 (human) (UniProt Q14004)
ROCK2 (human) = ROCK2 (human) (UniProt O75116)
PAK6 (human) = PAK6 (human) (UniProt Q9NQU5)
PAK6 (human), sequence (Q9NQU5 whole entry, looked up): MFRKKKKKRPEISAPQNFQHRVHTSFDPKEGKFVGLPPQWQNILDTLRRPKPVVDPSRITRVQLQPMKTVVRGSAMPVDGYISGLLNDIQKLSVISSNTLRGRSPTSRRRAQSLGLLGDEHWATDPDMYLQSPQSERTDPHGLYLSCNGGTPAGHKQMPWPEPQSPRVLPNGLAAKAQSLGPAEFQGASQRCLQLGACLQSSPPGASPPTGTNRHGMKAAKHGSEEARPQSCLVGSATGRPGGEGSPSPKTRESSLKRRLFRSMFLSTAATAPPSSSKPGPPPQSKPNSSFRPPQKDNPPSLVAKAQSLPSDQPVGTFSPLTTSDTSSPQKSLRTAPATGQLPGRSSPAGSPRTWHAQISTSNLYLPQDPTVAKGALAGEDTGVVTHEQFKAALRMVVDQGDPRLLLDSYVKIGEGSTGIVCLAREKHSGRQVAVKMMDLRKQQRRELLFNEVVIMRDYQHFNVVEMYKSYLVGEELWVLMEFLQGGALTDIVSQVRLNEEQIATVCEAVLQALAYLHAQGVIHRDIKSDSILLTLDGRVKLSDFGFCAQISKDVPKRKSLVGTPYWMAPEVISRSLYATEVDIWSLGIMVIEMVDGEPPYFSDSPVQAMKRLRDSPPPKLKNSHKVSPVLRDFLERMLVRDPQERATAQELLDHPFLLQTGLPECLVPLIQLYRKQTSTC

PI4KB (human) = PI4KB (human) (UniProt Q9UBF8)
[2] = molecular target: JAK3 JH1 catalytic (human) (UniProt P52333)
WEE2 (human) = WEE2 (human) (UniProt P0C1S8)
MAP2K1 (human) = MAP2K1 (human) (UniProt Q02750)
FGFR3 (human) = FGFR3 (human) (UniProt P22607)
FGFR3 (human), sequence (P22607 whole entry, looked up): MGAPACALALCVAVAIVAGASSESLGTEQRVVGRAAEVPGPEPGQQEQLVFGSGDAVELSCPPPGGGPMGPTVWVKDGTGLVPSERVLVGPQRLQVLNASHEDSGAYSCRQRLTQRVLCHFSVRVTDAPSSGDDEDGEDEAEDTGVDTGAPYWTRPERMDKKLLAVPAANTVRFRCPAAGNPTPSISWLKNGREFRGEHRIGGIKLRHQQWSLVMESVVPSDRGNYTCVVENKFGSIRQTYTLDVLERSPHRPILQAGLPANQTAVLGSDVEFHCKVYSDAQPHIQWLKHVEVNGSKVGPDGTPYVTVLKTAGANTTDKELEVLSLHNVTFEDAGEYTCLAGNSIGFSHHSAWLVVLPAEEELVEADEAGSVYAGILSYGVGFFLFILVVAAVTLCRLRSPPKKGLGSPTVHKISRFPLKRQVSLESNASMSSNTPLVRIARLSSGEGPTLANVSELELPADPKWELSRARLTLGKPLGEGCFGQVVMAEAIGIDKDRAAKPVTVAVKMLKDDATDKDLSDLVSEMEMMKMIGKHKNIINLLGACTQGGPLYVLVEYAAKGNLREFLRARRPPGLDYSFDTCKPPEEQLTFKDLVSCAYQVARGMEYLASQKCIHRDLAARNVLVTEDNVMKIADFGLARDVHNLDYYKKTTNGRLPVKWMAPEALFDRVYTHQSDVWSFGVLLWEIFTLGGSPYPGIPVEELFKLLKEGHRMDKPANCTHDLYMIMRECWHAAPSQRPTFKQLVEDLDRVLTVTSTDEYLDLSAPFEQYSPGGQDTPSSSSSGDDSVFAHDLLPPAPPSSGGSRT

MAP3K12 (human) = MAP3K12 (human) (UniProt Q12852)
MAP2K5 (human) = MAP2K5 (human) (UniProt Q13163)
MAPK9 (human) = MAPK9 (human) (UniProt P45984)
TESK1 (human) = TESK1 (human) (UniProt Q15569)
TESK1 (human), sequence (Q15569 whole entry, looked up): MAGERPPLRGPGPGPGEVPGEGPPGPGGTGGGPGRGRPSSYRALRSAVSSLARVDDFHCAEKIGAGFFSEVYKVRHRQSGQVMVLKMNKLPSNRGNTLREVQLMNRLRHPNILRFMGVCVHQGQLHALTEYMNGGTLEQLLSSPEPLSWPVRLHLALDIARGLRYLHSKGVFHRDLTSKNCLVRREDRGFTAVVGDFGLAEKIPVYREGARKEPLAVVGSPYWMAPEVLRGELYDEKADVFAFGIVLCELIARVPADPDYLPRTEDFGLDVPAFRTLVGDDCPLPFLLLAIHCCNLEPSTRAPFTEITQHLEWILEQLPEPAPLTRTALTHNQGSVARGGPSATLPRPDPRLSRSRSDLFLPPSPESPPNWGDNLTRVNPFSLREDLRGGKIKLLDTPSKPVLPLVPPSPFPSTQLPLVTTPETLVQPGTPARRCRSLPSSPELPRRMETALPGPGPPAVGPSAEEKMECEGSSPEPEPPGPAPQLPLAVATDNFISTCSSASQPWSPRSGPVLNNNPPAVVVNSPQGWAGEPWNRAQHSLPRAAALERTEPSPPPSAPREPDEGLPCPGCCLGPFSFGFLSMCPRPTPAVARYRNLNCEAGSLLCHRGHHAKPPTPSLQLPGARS

DCLK1 (human), sequence (O15075 whole entry, looked up): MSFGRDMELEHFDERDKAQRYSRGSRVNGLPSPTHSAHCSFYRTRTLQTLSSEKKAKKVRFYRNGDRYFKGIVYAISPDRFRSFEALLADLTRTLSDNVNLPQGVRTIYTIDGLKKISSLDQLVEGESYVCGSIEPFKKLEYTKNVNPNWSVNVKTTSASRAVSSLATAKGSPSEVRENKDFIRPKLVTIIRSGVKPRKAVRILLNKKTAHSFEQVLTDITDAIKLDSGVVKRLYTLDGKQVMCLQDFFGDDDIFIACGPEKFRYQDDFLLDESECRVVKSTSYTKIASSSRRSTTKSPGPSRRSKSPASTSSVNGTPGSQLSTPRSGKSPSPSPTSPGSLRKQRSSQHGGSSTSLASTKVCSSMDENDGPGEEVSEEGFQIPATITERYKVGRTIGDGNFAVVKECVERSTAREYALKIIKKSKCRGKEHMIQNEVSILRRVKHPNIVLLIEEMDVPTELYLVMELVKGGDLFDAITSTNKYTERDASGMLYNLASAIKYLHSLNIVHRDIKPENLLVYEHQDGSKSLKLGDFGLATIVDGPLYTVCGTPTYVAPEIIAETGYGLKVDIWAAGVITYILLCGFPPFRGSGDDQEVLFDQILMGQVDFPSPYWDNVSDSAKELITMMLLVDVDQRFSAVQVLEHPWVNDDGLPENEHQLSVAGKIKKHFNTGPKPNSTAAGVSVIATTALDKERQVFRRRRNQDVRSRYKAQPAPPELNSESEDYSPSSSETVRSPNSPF

| SMILES | kinase still bound, per cent of control (CSNK2A2 (human)) [%] | kinase still bound, per cent of control [1] [%] | kinase still bound, per cent of control (PIM3 (human)) [%] | kinase still bound, per cent of control (PRKAA1 (human)) [%] | kinase still bound, per cent of control (MET (human)) [%] | kinase still bound, per cent of control (DCLK1 (human)) [%] | kinase still bound, per cent of control (SLK (human)) [%] | kinase still bound, per cent of control (DYRK1B (human)) [%] | kinase still bound, per cent of control (STK33 (human)) [%] | kinase still bound, per cent of control (CAMKK2 (human)) [%] | kinase still bound, per cent of control (MYLK4 (human)) [%] | kinase still bound, per cent of control (LIMK1 (human)) [%] | kinase still bound, per cent of control (AURKB (human)) [%] | kinase still bound, per cent of control (EPHB2 (human)) [%] | kinase still bound, per cent of control (MAP3K6 (human)) [%] | kinase still bound, per cent of control (CAMKK1 (human)) [%] | kinase still bound, per cent of control (PKMYT1 (human)) [%] | kinase still bound, per cent of control (EPHA6 (human)) [%] | kinase still bound, per cent of control (MARK2 (human)) [%] | kinase still bound, per cent of control (MINK1 (human)) [%] | also measured |
| --- | --- | --- | --- | --- | --- | --- | --- | --- | --- | --- | --- | --- | --- | --- | --- | --- | --- | --- | --- | --- | --- |
| COc1cc2ncnc(Nc3cccc(Cl)c3)c2cc1OC | 16 | 76 | 54 | 100 | 62 | 54 | 2 | 70 | 73 | 72 | 78 | 100 | 40 | 67 | 43 | 74 | 78 | 11 | 74 | 37 | kinase still bound, per cent of control (ERBB2 (human)): 0.3%; kinase still bound, per cent of control (IRAK4 (human)): 8.9%; kinase still bound, per cent of control (CDK11B (human)): 86%; kinase still bound, per cent of control (CDK19 (human)): 93%; kinase still bound, per cent of control (INSR (human)): 62%; kinase still bound, per cent of control (DAPK3 (human)): 35%; kinase still bound, per cent of control (MAP3K7 (human)): 39%; kinase still bound, per cent of control (PRKD2 (human)): 86%; kinase still bound, per cent of control (CDK13 (human)): 91%; kinase still bound, per cent of control (ROCK2 (human)): 39%; kinase still bound, per cent of control (PAK6 (human)): 94%; kinase still bound, per cent of control (PI4KB (human)): 44%; kinase still bound, per cent of control [2]: 38%; kinase still bound, per cent of control (WEE2 (human)): 81%; kinase still bound, per cent of control (MAP2K1 (human)): 25%; kinase still bound, per cent of control (FGFR3 (human)): 99%; kinase still bound, per cent of control (MAP3K12 (human)): 92%; kinase still bound, per cent of control (MAP2K5 (human)): 3.5%; kinase still bound, per cent of control (MAPK9 (human)): 18%; kinase still bound, per cent of control (TESK1 (human)): 100% |
| O=c1[nH]c2ccccc2n1C1CCN(Cc2ccc(-c3nc4cc5[nH]cnc5cc4nc3-c3ccccc3)cc2)CC1 | 92 | 100 | 100 | 72 | 39 | 86 | 59 | 88 | 100 | 97 | 64 | 86 | 91 | 72 | 100 | 100 | 94 | 98 | 83 | 88 | kinase still bound, per cent of control (ERBB2 (human)): 86%; kinase still bound, per cent of control (IRAK4 (human)): 80%; kinase still bound, per cent of control (CDK11B (human)): 97%; kinase still bound, per cent of control (CDK19 (human)): 75%; kinase still bound, per cent of control (INSR (human)): 64%; kinase still bound, per cent of control (DAPK3 (human)): 85%; kinase still bound, per cent of control (MAP3K7 (human)): 85%; kinase still bound, per cent of control (PRKD2 (human)): 95%; kinase still bound, per cent of control (CDK13 (human)): 98%; kinase still bound, per cent of control (ROCK2 (human)): 73%; kinase still bound, per cent of control (PAK6 (human)): 85%; kinase still bound, per cent of control (PI4KB (human)): 60%; kinase still bound, per cent of control [2]: 95%; kinase still bound, per cent of control (WEE2 (human)): 96%; kinase still bound, per cent of control (MAP2K1 (human)): 83%; kinase still bound, per cent of control (FGFR3 (human)): 92%; kinase still bound, per cent of control (MAP3K12 (human)): 100%; kinase still bound, per cent of control (MAP2K5 (human)): 72%; kinase still bound, per cent of control (MAPK9 (human)): 91%; kinase still bound, per cent of control (TESK1 (human)): 74% |
